Legend:
[1] = system: patients after ocular surgery; assay: Clinical Phase II, post-surgery intraocular inflammation: safety; conditions: for AEs considered by the Investigator to be related to Dexamethasone / AEs considered by the Investigator to be related to XG-102: blinded assessment
Method: The criteria for evaluation of safety were: • a. Visual acuity by ETDRS method • b. Slit Lamp examination findings • c. The results of the ophthalmic fundus examination • d. Intra Ocular Pressure (IOP) measurements • e. Vital signs (blood pressure (BP), pulse rate (PR) and rhythm) • f. The results of the hematology and chemistry laboratory tests • g. The occurrence of Adverse Events • h. Presence (or not) of XG-102 in plasma 1 hour after the administration of study treatment in a subset of patients (approximately 30).
An AE is therefore any unfavorable and unintended sign, symptom or disease temporally associated with the use of a medicinal product, whether or not considered related to the medicinal product.
A Suspected Unexpected Serious Adverse Reaction (SUSAR) was defined as a suspected adverse reaction related to the treatment that is both unexpected (i.e. not consistent with the expected outcomes of the study treatment being administered) and serious.
Patients were analyzed as treated, i.e. according to the treatment which they received. The safety set was the primary analysis set for the safety analysis.
The present study was a double-blind study. All patients who were randomized and for whom the sub-conjunctival injection was started are included in the safety analysis by dose group. […] If the study treatment eye drops were stopped prematurely (i.e. before day 21), the patients concerned continued follow-up until day 28, in accordance with the study protocol.
Investigators assessed (in a blinded manner) the relationship of each reported AE to any of the study treatments. An event was considered to be related to study treatment if the Investigator ticked either ‘possible’ or ‘probable’ as the reply to this question.

[2] = system: HCT 116 human colon tumor; assay: Orthotopic HCT 116 human colon tumors in SCID mice; type: in vivo
Method: The objective of this study was to determine the effect of XG-102 on the growth of HCT 116 human colon tumor orthotopically xenografted in SCID mice.
For XG-102 administration the required amount of XG-102 was dissolved in the vehicle. The formulation was prepared according to the procedure detailed below. Concentrations were calculated and expressed taking into account test item purity and peptide content (multiplier coefficient was 74.6%). […] Diluted solutions were maintained on ice until use. Unused material was discarded. XG-102 was injected once daily at 0.1 and 1 mg/kg/inj. for a total of fourteen consecutive administrations (Q1Dx14). The routes of substance administrations were: injected subcutaneously (SC) at 5 ml/kg/inj., administered per os (PO) to mice by oral gavage via a cannula at 5 ml/kg/adm. The injection and administration volumes were adapted, according to the daily individual body weight of mice.
Twenty four to Forty-eight hours before tumor induction, 5 SCID mice were irradiated with a γ-source (1.8 Gy, Co^60, INRA, Dijon, France). Ten millions (10^7) HCT 116 cells suspended in 200 μl of RPMI medium were subcutaneously injected in the right flank of the 5 female SCJD mice. When tumors reached 1000-2000 mm^3, mice were sacrificed. Tumors were surgically excised from the animal to obtain fresh tumor fragments (20-30 mg) to be orthotopically implanted on the caecum of 75 mice at D0.
Twenty four to forty-eight hours before tumor implantation, 75 SCID mice were irradiated with a γ-source (1.8 Gy, Co^60, INRA, Dijon, France). The surgery was performed in the afternoon, with a minimum delay of two hours after the 7th XG-102 treatment. The abdomen from anaesthetized animal was opened through a median incision under aseptic conditions. The caecum was exteriorized and a small lesion was performed on caecum wall. The tumor fragment was placed on lesion and fixed with 6/0 sutures. The abdominal cavity was subsequently closed in 2 layers with 4/0 sutures.
At D-7, mice were randomized according to their body weight before treatment start to form 5 groups of 15 mice. The body weight of each group was not statistically different from the others (analysis of variance). The treatment began at D-7 according to following treatment schedule: • Mice from group 1 received one PO administration of XG-102 vehicle at 5 ml/kg/inj. once daily for a total of fourteen consecutive administrations (Q 1 Dx14), • Mice from group 2 received one PO administration of XG-102 at 0.1 mg//kg/inj. once daily for a total of fourteen consecutive administrations (QI Dx14), • Mice from group 3 received one PO administration of XG-102 at 1 mg//kg/inj. Once daily for a total of fourteen consecutive administrations (Q1Dx14), • Mice from group 4 received one SC injection of XG-102 at 0.1 mg//kg/inj. once daily for a total of fourteen successive administrations (Q1Dx14), • Mice from group 5 received one SC injection of XG-102 at 1 mg//kg/inj. once daily for a total of fourteen consecutive administrations (Q1Dx14):
Mice were monitored every day throughout the study for behaviour and survival. The body weight and tumor volume was monitored twice a week for all mice throughout the study. Isoflurane® Forene (Centravet, Bondoufle, France) was used to anaesthetize the animals before cell injection, surgery (orthotopic tumor implantation) and sacrifice.
Mice were sacrificed at D26. […] Invasion of liver by tumor nodules was evaluated macroscopically. […]

CC(C)C[C@@H](NC(=O)[C@@H](Cc1ccccc1)NC(=O)[C@H]1CCCN1C(=O)[C@@H](CCC(N)=O)NC(=O)[C@H](NC(=O)[C@H]1CCCN1C(=O)[C@@H](CCCNC(=N)N)NC(=O)[C@@H](CO)NC(=O)[C@@H](CCC(N)=O)NC(=O)[C@H](N)CC(=O)O)C(C)C)C(=O)N[C@H](CC(N)=O)C(=O)N[C@H](CC(C)C)C(=O)N[C@@H](C(=O)N[C@@H](C(=O)N1CCC[C@@H]1C(=O)N[C@H](CCCNC(=N)N)C(=O)N[C@H](CCCCN)C(=O)N1CCC[C@@H]1C(=O)N[C@H](CCCNC(=N)N)C(=O)N1CCC[C@@H]1C(=O)N1CCC[C@@H]1C(=O)N[C@H](CCCNC(=N)N)C(=O)N[C@H](CCCNC(=N)N)C(=O)N[C@H](CCCNC(=N)N)C(=O)N[C@H](CCC(N)=O)C(=O)N[C@H](CCCNC(=N)N)C(=O)N[C@H](CCCNC(=N)N)C(=O)N[C@H](CCCCN)C(=O)N[C@H](CCCCN)C(=O)N[C@H](CCCNC(=N)N)C(=O)NCC(=O)O)[C@H](C)O)[C@H](C)O [XG-102]
AEs possibly or probably related to study treatment as assessed by the Investigator ([1]; 90 μg XG-102 (N = 47)): 18 Total # events | AEs considered by the Investigator to be related to Dexamethasone ([1]; 90 μg XG-102 group): 2 (2.6%) Total # events (%) | AEs considered by the Investigator to be related to XG-102 ([1]; 90 μg XG-102 group): 16 (20.5%) Total # events (%) | AEs possibly or probably related to study treatment as assessed by the Investigator ([1]; 900 μg XG-102 (N = 48)): 13 Total # events | AEs considered by the Investigator to be related to Dexamethasone ([1]; 900 μg XG-102 group): 1 (1.5%) Total # events (%) | AEs considered by the Investigator to be related to XG-102 ([1]; 900 μg XG-102 group): 12 (17.4%) Total # events (%) | AEs possibly or probably related to study medication ([1]; XG-102 90 μg): 18 events | Intraocular pressure increased, patients ([1]; XG-102 90 μg): 23% | events in SOC EYE DISORDERS ([1]; XG-102 90 μg): 49 events | events resulting in premature withdrawal of study treatment eye drops ([1]; XG-102 90 μg): 11 events | patients with SAEs ([1]; XG-102 90 μg): 4 patients | patients with events in SOC EYE DISORDERS ([1]; XG-102 90 μg): 26 (55%) | percentage of patients with an AE within 24 hours after administration ([1]; XG-102 90 μg): 34% | total number of AEs reported ([1]; XG-102 90 μg): 78 | Reported AEs by severity: Mild ([1]; XG-102 90 μg dose group): 55 (70.5%) number of events (% of reported events) | Reported AEs by severity: Moderate ([1]; XG-102 90 μg dose group): 6 (7.7%) number of events (% of reported events) | Reported AEs by severity: Severe ([1]; XG-102 90 μg dose group): 17 (21.7%) number of events (% of reported events) | AEs possibly or probably related to study medication ([1]; XG-102 900 μg): 13 events | Intraocular pressure increased, patients ([1]; XG-102 900 μg): 10% | events in SOC EYE DISORDERS ([1]; XG-102 900 μg): 43 events | events resulting in premature withdrawal of study treatment eye drops ([1]; XG-102 900 μg): 8 events | patients with SAEs ([1]; XG-102 900 μg): 3 patients | patients with events in SOC EYE DISORDERS ([1]; XG-102 900 μg): 24 (50%) | percentage of patients with an AE within 24 hours after administration ([1]; XG-102 900 μg): 27% | total number of AEs reported ([1]; XG-102 900 μg): 69 | Reported AEs by severity: Mild ([1]; XG-102 900 μg dose group): 49 (71.0%) number of events (% of reported events) | Reported AEs by severity: Moderate ([1]; XG-102 900 μg dose group): 12 (17.4%) number of events (% of reported events) | Reported AEs by severity: Severe ([1]; XG-102 900 μg dose group): 8 (11.6%) number of events (% of reported events) | Eye pain ([1]; XG-102 900 μg vs dexamethasone (p=0.029)): Eye pain was more frequently reported for patients allocated to the XG-102 900 μg group | percentage of death D0 to D9 (surgery complications) ([2]; 1st treated group listed (PO 0.1 mg/kg, order assumed)): 40% | percentage of death D0 to D9 (surgery complications) ([2]; 2nd treated group listed (PO 1 mg/kg, order assumed)): 34% | percentage of death D0 to D9 (surgery complications) ([2]; 3rd treated group listed (SC 0.1 mg/kg, order assumed)): 47% | percentage of death D0 to D9 (surgery complications) ([2]; 4th treated group listed (SC 1 mg/kg, order assumed)): 40% | MBWC at D-2 ([2]; PO 0.1 mg/kg/adm.): +7.1±4.6%
